Data: US20060258647A1, “Treatment of maladaptive substance use with cholecystokinin (CCK) antagonists” (The Regents of the University of California, priority 2005, published 2006)
Entries after “also recorded” stand apart in the source; their conditions may differ.

Experiments:
[1] = Jackson et al., 1994; cited from earlier work
Sprague-Dawley rats [2] = assay: Expression of morphine CPP after microinjection into anterior or posterior nucleus accumbens (NAcc); assay type: in vivo, rat; conditions: CCK-4 10 ng, CCK-8 100 ng (legend 10 ng), raclopride 4 μg; for expression of morphine CPP, microinjected independently into anterior NAcc: L-365, 260 1 ng (p=0.002), SCH-23390 2 μg; for expression of morphine CPP, microinjected independently into anterior NAcc / expression of morphine CPP, microinjected independently into posterior NAcc: lorglumide 15 ng; for expression of morphine CPP, microinjected independently into posterior NAcc: L-365, 260 1 ng (p=0.021), SCH-23390 2 μg (p=0.049); for effect of co-injection on the L-365, 260 effect (attenuation) on morphine CPP, anterior NAcc: co-injected with L-365, 260 into anterior NAcc; for effect of co-injection on the L-365, 260 effect (potentiation) on morphine CPP, posterior NAcc: co-injected with L-365, 260 into posterior NAcc
Protocol: (§1) 68 male Sprague-Dawley rats (Charles River, Wilmington, Mass.) weighing 275-300 grams at the onset of the study were individually housed in a temperature controlled environment (70° F.) and kept on a 12 hour light/dark cycle. Rat chow and water were available ad libitum. Animals were tested at the same time during their light cycle each day. All experimental protocols were approved by the Institutional Animal Care and Use Committee and were conducted in accordance with the Guide for the Care and Use of Laboratory Animals (N1H). 22 rats were used for systemic injections and the remaining rats were cannulated for NAcc microinjections.
Animals were anesthetized with a ketamine-xylazine mixture and maintained on isoflurane (0.5 liter/min) as needed for the duration of surgery. Animals were placed in a stereotaxic frame and were implanted with bilateral 26-gauge stainless steel chronic guide cannulae (Plastics One, Roanoke, V A) into either the Anterior (AP, 2.2; ML, ±1.1; DV, −5.5) or Posterior (AP, 1.2; ML, ±1.1; DV, −5.5) NAcc. Cannulae were secured to the skull with dental cement. At the end of the surgical procedure, animals were treated with penicillin and topical antibiotics. A stainless steel dummy cannula (Plastics One) was inserted into each guide cannula and remained in place when the guide cannulae were not in use. Animals were allowed a 1-week recovery period prior to behavioral testing.
(§2) Animals were trained in 3 chamber place conditioning boxes (Med Associates) in which 2 chambers (28×21×21 cm) that differed in color (one black, one white), light level, and texture were separated by a neutral gray chamber (12×21×21). During the initial baseline period, animals were placed in the central chamber and were allowed to freely explore all 3 chambers for a period of 30 minutes. Beam breaks, entries, and time spent in each chamber were automatically recorded using infrared beams. […] During each conditioning session, animals were injected with either morphine or saline and were then immediately confined to one of the two larger chambers for 60 minutes. Rats received 2 conditioning sessions per day for a period of 4 days. Conditioning sessions were separated by a minimum period of 5 hours. Animals were tested for expression of conditioned place preference 1 day after the final conditioning session. Drug side and order were counter-balanced. […] Systemic L-365, 260 was administered 30 minutes before the onset of CPP testing.
All injection sites were based on the atlas of Paxinos and Watson (1998). Bilateral injections were made into either the Anterior (AP, 2.2; ML, +1.1; DV, −5.5) or Posterior (AP, 1.2; ML, ±1.1; DV, −5.5) NAcc. Each injection was made using a 1 μl syringe (Hamilton, Reno, Nev.) attached to 20 cm of PE 50 tubing connected to a 33-gauge injection cannula (Plastics One). Microinjections were given at a rate of 0.5 μl per minute using a syringe pump (kd Scientific, Holliston, M A). A volume of 0.5 μl was injected into each side of the NAcc. Injection cannulae extended 2 mm beyond guide cannulae and were left in place for 1 minute following microinjections to minimize the backflow of drug solution. 10 minutes after microinjection was completed, animals were placed into the central CPP chamber and allowed to explore for a period of 30 minutes. Animals received a maximum of four bilateral NAcc microinjections. The number of microinjections each animal received was determined by the persistence of place preference. […] Microinjection drug order was counterbalanced and began a minimum of one day following the test for expression of morphine CPP. Animals were tested for baseline expression of morphine CPP 24 hours following each microinjection to ensure the return to pre-injection baseline. At the conclusion of the experiment, animals were anesthetized with pentobarbital and perfused intracardially through the ascending aorta with 0.1M phosphate buffered saline followed by 10% formalin. […]

Sprague-Dawley rats [3] = assay: Expression of morphine conditioned place preference (CPP) after systemic administration; assay type: in vivo, rat; conditions: 1 mg/kg systemic (i.p.)
Protocol: as §1
as §2, with “testing. […]” for “testing.”
*Difference scores were calculated by subtracting the time spent in the saline paired chamber from the time spent in the morphine paired chamber during a test session. […]

humans = conditions: literature (Murphy et al., 1993 and others); cited from earlier work
Rats = assay: Ethanol consumption / reinstatement with foot shock; assay type: in vivo, rat
Protocol: Rats (n=18) were administered 3 daily doses of systemic L-365 (1 mg/kg) prior to a one-hour ethanol (10%) access session. On the second day of L-365, 260 administration, animals were administered 0.8 mA of shock (0.5 seconds every 40 seconds for a period of 15 minutes) in ethanol access chambers directly prior to the onset of their one-hour access session. […] This was a randomized cross over design with each animal serving as its own control.
L-365, 260 had no effect on ethanol consumption when shock was administered during extinction (n=12). Animals were administered 3 daily doses of systemic L-365, 260 after ethanol consumption was extinguished. On the second day of L-365, 260 administration, animals were administered 0.8 mA of shock (0.5 seconds every 40 seconds for a period of 15 minutes) in the ethanol access chambers directly prior to the onset of their one-hour extinction session. This was a randomized cross over design with each animal serving as its own control.
L-365 had no effect on ethanol reinstatement when shock was administered on the first day of re-initiation of ethanol access (n=12). Animals were administered 3 daily doses of systemic L-365, 260 after ethanol consumption was extinguished. On the first day of L-365, 260 administration, animals were administered 0.8 mA of shock (0.5 seconds every 40 seconds for a period of 15 minutes) in the ethanol access chambers directly prior to the onset of their one-hour reinstatement session. This was a randomized cross over design with each animal serving as its own control.

Compound: Cc1cccc(NC(=O)N[C@@H]2N=C(c3ccccc3)c3ccccc3N(C)C2=O)c1 [L-365, 260, (3R-(+)-2,3-dihydro-1-methyl-2-oxo-5-phenyl-1H-1,4-benzodiazepin-3-yl)-N′-(3-methylphenyl)urea]
- differentiation from saline in animal discrimination studies [1]: cannot be differentiated from saline
- expression of morphine CPP, microinjected independently into anterior NAcc (Sprague-Dawley rats [2]): attenuates
- expression of morphine CPP, microinjected independently into posterior NAcc (Sprague-Dawley rats [2]): potentiates
- expression of morphine CPP (Sprague-Dawley rats [3]; after acquisition of CPP, tested immediately after injection, p=0.006): attenuates
- expression of morphine CPP (Sprague-Dawley rats [3]; tested 24 hours after injection, p=0.0009): attenuates
- expression of morphine CPP (Sprague-Dawley rats [3]; tested 72 hours after injection, p=0.004): attenuates
- side effects on administration to humans (humans): no significant side effects
- ethanol consumption on the two days following shock (Rats; 3 daily systemic doses 1 mg/kg before one-hour ethanol (10%) access, 0.8 mA shock on second day, n=18, vs saline controls): consumed significantly less ethanol than saline controls
- ethanol consumption when shock was administered during extinction (Rats; 3 daily systemic doses after ethanol consumption was extinguished, shock on second day, n=12): had no effect
- ethanol reinstatement when shock was administered on the first day of re-initiation of ethanol access (Rats; 3 daily systemic doses after extinction, shock on first day, n=12): had no effect

Compound: CCCCCN(CCCCC)C(=O)C(CCC(=O)O)NC(=O)c1ccc(Cl)c(Cl)c1 (stereo not shown) [lorglumide]
- expression of morphine CPP, microinjected independently into anterior NAcc (Sprague-Dawley rats [2]): has no effect
- expression of morphine CPP, microinjected independently into anterior NAcc (Sprague-Dawley rats [2]; listed as Lorglumide): had no effect
- expression of morphine CPP, microinjected independently into posterior NAcc (Sprague-Dawley rats [2]): has no effect
- expression of morphine CPP, microinjected independently into posterior NAcc (Sprague-Dawley rats [2]; listed as Lorglumide): had no effect

Compound: CCN1CCC[C@H]1CNC(=O)c1c(O)c(Cl)cc(Cl)c1OC [raclopride]
- expression of morphine CPP, microinjected independently into anterior NAcc (Sprague-Dawley rats [2]): has no effect
- expression of morphine CPP, microinjected independently into anterior NAcc (Sprague-Dawley rats [2]; listed as Raclopride): had no effect
- effect of co-injection on the L-365, 260 effect (attenuation) on morphine CPP, anterior NAcc (Sprague-Dawley rats [2]): reverse the effects of L-365, 260
- effect of co-injection on the L-365, 260 effect (potentiation) on morphine CPP, posterior NAcc (Sprague-Dawley rats [2]): reverse the effects of L-365, 260
- expression of morphine CPP, microinjected independently into posterior NAcc (Sprague-Dawley rats [2]): has no effect
- expression of morphine CPP, microinjected independently into posterior NAcc (Sprague-Dawley rats [2]; listed as Raclopride): had no effect

Compound: CCK-4
- expression of morphine CPP, microinjected independently into anterior NAcc (Sprague-Dawley rats [2]): neither of which had an effect; also recorded: neither of which has an effect
- effect of co-injection on the L-365, 260 effect (attenuation) on morphine CPP, anterior NAcc (Sprague-Dawley rats [2]): reversed
- effect of co-injection on the L-365, 260 effect (potentiation) on morphine CPP, posterior NAcc (Sprague-Dawley rats [2]): reversed
- expression of morphine CPP, microinjected independently into posterior NAcc (Sprague-Dawley rats [2]): neither of which had an effect; also recorded: neither of which has an effect

Compound: CCK-8: cholecystokinin peptide, CCKB receptor ligand precursor, obtained from Research Biochemicals
- expression of morphine CPP, microinjected independently into anterior NAcc (Sprague-Dawley rats [2]): neither of which had an effect; also recorded: neither of which has an effect
- effect of co-injection on the L-365, 260 effect (attenuation) on morphine CPP, anterior NAcc (Sprague-Dawley rats [2]): reversed
- effect of co-injection on the L-365, 260 effect (potentiation) on morphine CPP, posterior NAcc (Sprague-Dawley rats [2]): reversed
- expression of morphine CPP, microinjected independently into posterior NAcc (Sprague-Dawley rats [2]): neither of which had an effect; also recorded: neither of which has an effect
